Laboratory results: the supplement of paper PMC10307832

Compound: CC1(C)CCC(CN2CCN(c3ccc(C(=O)NS(=O)(=O)c4ccc(NCC5CCOCC5)c([N+](=O)[O-])c4)c(Oc4cnc5[nH]ccc5c4)c3)CC2)=C(c2ccc(Cl)cc2)C1 [Venetoclax] + Cc1nc(Nc2ncc(C(=O)Nc3c(C)cccc3Cl)s2)cc(N2CCN(CCO)CC2)n1 [Dasatinib] (partner 0.075 µM)
Test: relative viability (nuclei count vs DMSO), 5 days (fraction); higher = more cells survive
Details: first compound 0.01 µM
Method in brief: (§1)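 Relative viability was taken as the ratio of nuclei in treated wells to nuclei in vehicle wells. Lung cancer cell lines in 1536-well plates received compounds by pin tool one day after seeding, either one drug alone or a fixed anchor-drug dose plus five library-drug doses (not always all listed) in √10 steps. Nuclei were counted on 4× images after 5 days of treatment, and values are medians of duplicate plates.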

Cell Line	relative viability
BEN	0.323
HCC-15	0.607
HCC-827	0.336
NCI-H460	0.597
LU99A	0.625
NCI-H2085	0.273
A-427	0.667
NCI-H520	0.218
NCI-H838	0.367
NCI-H596	0.707
NCI-H3122	0.811
NCI-H1395	0.449
201T	0.545
NCI-H1993	0.641
HOP-62	0.557
NCI-H1355	0.697
NCI-H2405	0.179

Cell Line	relative viability
NCI-H1437	0.508
NCI-H661	0.809
CAL-12T	0.286
H3255	0.367
NCI-H2347	0.328
NCI-H1975	0.355
NCI-H441	0.685
NCI-H1650	0.362
NCI-H1915	0.303
NCI-H2087	0.848
NCI-H1793	0.448
RERF-LC-KJ	0.62
EKVX	0.576
LCLC-103H	0.48
NCI-H1651	0.474
NCI-H1944	0.283

Same assay, conditions: first compound 0.03162 µM

Cell Line	relative viability
BEN	0.362
HCC-15	0.627
HCC-827	0.368
NCI-H460	0.532
LU99A	0.632
NCI-H2085	0.238
A-427	0.726
NCI-H520	0.193
NCI-H838	0.288
NCI-H596	0.549
NCI-H3122	0.757
NCI-H1395	0.406
201T	0.551
NCI-H1993	0.546
HOP-62	0.582
NCI-H1355	0.731
NCI-H2405	0.199

Cell Line	relative viability
NCI-H1437	0.494
NCI-H661	1.04
CAL-12T	0.476
H3255	0.399
NCI-H2347	0.318
NCI-H1975	0.4
NCI-H441	0.667
NCI-H1650	0.352
NCI-H1915	0.301
NCI-H2087	0.839
NCI-H1793	0.355
RERF-LC-KJ	0.84
EKVX	0.641
LCLC-103H	0.439
NCI-H1651	0.43
NCI-H1944	0.235

Same assay, conditions: first compound 0.1 µM

Cell Line	relative viability
BEN	0.374
HCC-15	0.587
HCC-827	0.34
NCI-H460	0.401
LU99A	0.659
NCI-H2085	0.282
A-427	0.667
NCI-H520	0.158
NCI-H838	0.303
NCI-H596	0.587
NCI-H3122	0.885
NCI-H1395	0.392
201T	0.614
NCI-H1993	0.493
HOP-62	0.616
NCI-H1355	0.623
NCI-H2405	0.186

Cell Line	relative viability
NCI-H1437	0.274
NCI-H661	0.871
CAL-12T	0.381
H3255	0.373
NCI-H2347	0.322
NCI-H1975	0.372
NCI-H441	0.482
NCI-H1650	0.29
NCI-H1915	0.311
NCI-H2087	0.997
NCI-H1793	0.291
RERF-LC-KJ	0.784
EKVX	0.437
LCLC-103H	0.479
NCI-H1651	0.383
NCI-H1944	0.201

Same assay, conditions: first compound 0.3162 µM

Cell Line	relative viability
BEN	0.34
HCC-15	0.645
HCC-827	0.33
NCI-H460	0.527
LU99A	0.516
NCI-H2085	0.243
A-427	0.687
NCI-H520	0.178
NCI-H838	0.312
NCI-H596	0.572
NCI-H3122	0.786
NCI-H1395	0.442
201T	0.501
NCI-H1993	0.541
HOP-62	0.709
NCI-H1355	0.723
NCI-H2405	0.197

Cell Line	relative viability
NCI-H1437	0.44
NCI-H661	0.995
CAL-12T	0.398
H3255	0.446
NCI-H2347	0.309
NCI-H1975	0.318
NCI-H441	0.546
NCI-H1650	0.324
NCI-H1915	0.297
NCI-H2087	0.936
NCI-H1793	0.358
RERF-LC-KJ	0.779
EKVX	0.567
LCLC-103H	0.463
NCI-H1651	0.409
NCI-H1944	0.222

Same assay, conditions: first compound 1 µM

Cell Line	relative viability
BEN	0.303
HCC-15	0.549
HCC-827	0.334
NCI-H460	0.478
LU99A	0.583
NCI-H2085	0.22
A-427	0.639
NCI-H520	0.195
NCI-H838	0.279
NCI-H596	0.615
NCI-H3122	0.817
NCI-H1395	0.409
201T	0.488
NCI-H1993	0.537
HOP-62	0.625
NCI-H1355	0.602
NCI-H2405	0.197

Cell Line	relative viability
NCI-H1437	0.478
NCI-H661	0.888
CAL-12T	0.314
H3255	0.404
NCI-H2347	0.268
NCI-H1975	0.322
NCI-H441	0.596
NCI-H1650	0.305
NCI-H1915	0.32
NCI-H2087	0.76
NCI-H1793	0.27
RERF-LC-KJ	0.675
EKVX	0.47
LCLC-103H	0.45
NCI-H1651	0.43
NCI-H1944	0.227

Compound: Cn1cnc2c(F)c(Nc3ccc(Br)cc3Cl)c(C(=O)NOCCO)cc21 [Selumetinib] + Cc1cc(Nc2cc(N3CCN(C)CC3)nc(Sc3ccc(NC(=O)C4CC4)cc3)n2)n[nH]1 [Tozasertib] (partner 0.1 µM)
Test: as above
Details: first compound 0.02 µM
Method in brief: as §1

Cell Line	relative viability
BEN	0.545
HCC-15	0.372
HCC-827	0.42
NCI-H460	0.379
LU99A	0.274
NCI-H2085	0.737
A-427	0.205
NCI-H520	0.477
NCI-H838	0.261
NCI-H596	0.883
NCI-H3122	0.397
NCI-H1395	0.714
201T	0.908
NCI-H1993	0.492
HOP-62	0.377
NCI-H1355	0.536
NCI-H2405	0.734

Cell Line	relative viability
NCI-H1437	0.319
NCI-H661	0.381
CAL-12T	0.34
H3255	0.624
NCI-H2347	0.505
NCI-H1975	0.753
NCI-H441	0.587
NCI-H1650	0.332
NCI-H1915	0.428
NCI-H2087	0.194
NCI-H1793	0.314
RERF-LC-KJ	0.541
EKVX	0.36
LCLC-103H	0.514
NCI-H1651	0.644
NCI-H1944	0.238

Same assay, conditions: first compound 0.06325 µM

Cell Line	relative viability
BEN	0.442
HCC-15	0.209
HCC-827	0.393
NCI-H460	0.283
LU99A	0.278
NCI-H2085	0.592
A-427	0.193
NCI-H520	0.435
NCI-H838	0.226
NCI-H596	0.899
NCI-H3122	0.351
NCI-H1395	0.702
201T	0.928
NCI-H1993	0.557
HOP-62	0.317
NCI-H1355	0.567
NCI-H2405	0.673

Cell Line	relative viability
NCI-H1437	0.359
NCI-H661	0.366
CAL-12T	0.364
H3255	0.687
NCI-H2347	0.489
NCI-H1975	0.703
NCI-H441	0.656
NCI-H1650	0.394
NCI-H1915	0.568
NCI-H2087	0.211
NCI-H1793	0.269
RERF-LC-KJ	0.489
EKVX	0.345
LCLC-103H	0.458
NCI-H1651	0.643
NCI-H1944	0.228

Same assay, conditions: first compound 0.2 µM

Cell Line	relative viability
BEN	0.489
HCC-15	0.268
HCC-827	0.408
NCI-H460	0.246
LU99A	0.266
NCI-H2085	0.552
A-427	0.168
NCI-H520	0.461
NCI-H838	0.229
NCI-H596	0.668
NCI-H3122	0.305
NCI-H1395	0.718
201T	0.88
NCI-H1993	0.575
HOP-62	0.376
NCI-H1355	0.445
NCI-H2405	0.692

Cell Line	relative viability
NCI-H1437	0.274
NCI-H661	0.386
CAL-12T	0.301
H3255	0.74
NCI-H2347	0.35
NCI-H1975	0.684
NCI-H441	0.636
NCI-H1650	0.312
NCI-H1915	0.319
NCI-H2087	0.166
NCI-H1793	0.235
RERF-LC-KJ	0.465
EKVX	0.378
LCLC-103H	0.435
NCI-H1651	0.591
NCI-H1944	0.233

Same assay, conditions: first compound 0.6325 µM

Cell Line	relative viability
BEN	0.564
HCC-15	0.158
HCC-827	0.361
NCI-H460	0.152
LU99A	0.276
NCI-H2085	0.593
A-427	0.17
NCI-H520	0.52
NCI-H838	0.245
NCI-H596	0.648
NCI-H3122	0.268
NCI-H1395	0.748
201T	0.874
NCI-H1993	0.601
HOP-62	0.328
NCI-H1355	0.414
NCI-H2405	0.478

Cell Line	relative viability
NCI-H1437	0.2
NCI-H661	0.374
CAL-12T	0.229
H3255	0.556
NCI-H2347	0.228
NCI-H1975	0.591
NCI-H441	0.583
NCI-H1650	0.308
NCI-H1915	0.303
NCI-H2087	0.147
NCI-H1793	0.221
RERF-LC-KJ	0.44
EKVX	0.336
LCLC-103H	0.349
NCI-H1651	0.537
NCI-H1944	0.203

Compound: CC1(C)CCC(CN2CCN(c3ccc(C(=O)NS(=O)(=O)c4ccc(NCC5CCOCC5)c([N+](=O)[O-])c4)c(Oc4cnc5[nH]ccc5c4)c3)CC2)=C(c2ccc(Cl)cc2)C1 [Venetoclax] + CCNC(=O)c1noc(-c2cc(C(C)C)c(O)cc2O)c1-c1ccc(CN2CCOCC2)cc1 [Luminespib] (partner 0.01 µM)
Test: as above
Details: first compound 0.01 µM
Method in brief: as §1

Cell Line	relative viability
BEN	0.343
HCC-15	0.479
HCC-827	0.657
NCI-H460	0.0354
LU99A	0.232
NCI-H2085	0.339
A-427	0.903
NCI-H520	0.258
NCI-H838	0.408
NCI-H596	1.03
NCI-H3122	0.0697
NCI-H1395	0.661
201T	1.01
NCI-H1993	0.881
HOP-62	0.945
NCI-H1355	0.748
